Test results from ChEMBL document CHEMBL5154709, “Tetrazole derivatives bearing benzodiazepine moiety-synthesis and action mode against virulence of Candida albicans” (Eur J Med Chem, 2022).
Activity calls are given as the source filed them. No cut-off for these calls is given here.

Key:
Candida albicans [1] = assay: Antifungal against Candida albicans cnb1delta/cnb1delta mutant biofilm assessed as increase cell membrane permeability at 16 ug/ml incubated for 18 hrs by Rho123 and Hoechst 33342 double staining based confocal laser scanning microscopic analysis; format: functional, organism-based; conditions: dose 16.0 µg/ml
Candida albicans [2] = assay: Antifungal activity against Candida albicans SC5314 assessed as inhibition of fungal growth at 4 ug/ml incubated for 18 hrs by M27-A3 based microdilution method relative to control; format: functional
Candida albicans [3] = assay: Antifungal activity against Candida albicans SC5314 assessed as inhibition of fungal growth at 16 ug/ml incubated for 18 hrs by M27-A3 based microdilution method relative to control; format: functional
Candida albicans [4] = assay: Antifungal activity against Candida albicans SC5314 assessed as inhibition of fungal growth at 8 ug/ml incubated for 18 hrs by M27-A3 based microdilution method relative to control; format: functional
Candida albicans [5] = assay: Antifungal activity against Candida albicans SC5314 assessed as inhibition of fungal growth at 8 ug/ml incubated for 48 hrs by M27-A3 based microdilution method relative to control; format: functional
Candida albicans [6] = assay: Antifungal activity against Candida albicans SC5314 assessed as inhibition of fungal growth at 4 ug/ml incubated for 48 hrs by M27-A3 based microdilution method relative to control; format: functional
Candida albicans [7] = assay: Antifungal activity against Candida albicans SC5314 assessed as inhibition of fungal growth at 2 ug/ml incubated for 18 hrs by M27-A3 based microdilution method relative to control; format: functional
Candida albicans [8] = assay: Antifungal activity against Candida albicans SC5314 assessed as inhibition of fungal growth at 2 ug/ml incubated for 48 hrs by M27-A3 based microdilution method relative to control; format: functional
Candida albicans [9] = assay: Antifungal activity against Candida albicans SC5314 assessed as inhibition of fungal growth at 1 ug/ml incubated for 48 hrs by M27-A3 based microdilution method relative to control; format: functional
Candida albicans [10] = assay: Antifungal activity against Candida albicans SC5314 assessed as inhibition of fungal growth at 0.5 ug/ml incubated for 48 hrs by M27-A3 based microdilution method relative to control; format: functional
Candida albicans [11] = assay: Antifungal activity against Candida albicans SC5314 assessed as inhibition of fungal growth at 0.25 ug/ml incubated for 48 hrs by M27-A3 based microdilution method relative to control; format: functional
Candida albicans [12] = assay: Antifungal activity against Candida albicans SC5314 assessed as inhibition of fungal growth at 0.125 ug/ml incubated for 18 hrs by M27-A3 based microdilution method relative to control; format: functional
Candida albicans [13] = assay: Antifungal activity against Candida albicans SC5314 assessed as inhibition of fungal growth at 0.125 ug/ml incubated for 48 hrs by M27-A3 based microdilution method relative to control; format: functional
Candida albicans [14] = assay: Antifungal activity against Candida albicans SC5314 assessed as inhibition of fungal growth at 0.0625 ug/ml incubated for 18 hrs by M27-A3 based microdilution method relative to control; format: functional
Candida albicans [15] = assay: Antifungal activity against Candida albicans SC5314 assessed as inhibition of fungal growth at 0.03125 ug/ml incubated for 48 hrs by M27-A3 based microdilution method relative to control; format: functional
Candida albicans [16] = assay: Induction of apoptosis in Candida albicans SC5314 non-protoplast cells assessed as necrotic cells at 16 ug/ml incubated for 18 hrs by PI/Annexin V staining based flow cytometry assay; format: functional; conditions: dose 16 µg/ml
Candida albicans [17] = assay: Induction of cell cycle arrest in Candida albicans SC5314 assessed as accumulation of cells in G0/G1 phase at 16 ug/ml incubated fro 18 hrs by PI staining based flow cytometry method; format: functional, organism-based; conditions: dose 16.0 µg/ml
Candida albicans [18] = assay: Induction of reactive oxygen species generation in Candida albicans SC5314 assessed as increase in ROS level at 16 ug/ml incubated for 18 hrs by DCFH-DA staining based flow cytometric analysis (reference value: 0.77+/- 0.4%); format: functional; conditions: dose 16 µg/ml
Candida albicans [19] = assay: Induction of reactive oxygen species generation in Candida albicans BWP17 assessed as increase in ROS level at 16 ug/ml incubated for 18 hrs by DCFH-DA staining based flow cytometric analysis (reference value: 7.2+/- 0.2%); format: functional; conditions: dose 16 µg/ml
Candida albicans [20] = assay: Induction of reactive oxygen species generation in Candida albicans CNB1/cnb1delta mutant assessed as increase in ROS level at 16 ug/ml incubated for 18 hrs by DCFH-DA staining based flow cytometric analysis (reference value: 3.8+/- 4.2%); format: functional; conditions: dose 16 µg/ml
Candida albicans [21] = assay: Antifungal against Candida albicans SC5314 biofilm co-cultured with African green monkey Vero cells assessed as lysosomal membrane permeabilization at 16 ug/ml incubated for 18 hrs by PI/acridine orange double staining based confocal laser scanning microscopic analysis; format: functional, organism-based; conditions: dose 16.0 µg/ml
Candida albicans [22] = assay: Antifungal against Candida albicans cnb1delta/cnb1delta mutant biofilm assessed as apoptotic cells by measuring lysosomal membrane permeabilization at 16 ug/ml incubated for 18 hrs by PI/acridine orange double staining based confocal laser scanning microscopic analysis; format: functional, organism-based; conditions: dose 16.0 µg/ml
Candida albicans [23] = assay: Antifungal against Candida albicans cnb1delta/cnb1delta mutant biofilm assessed as oxidative stress by measuring appearance of spherical cells at 16 ug/ml incubated for 18 hrs by PI/acridine orange double staining based confocal laser scanning microscopic analysis; format: functional, organism-based; conditions: dose 16.0 µg/ml
Candida albicans [24] = assay: Induction of macrophage-mediated Candida albicans SC5314 phagocytosis assessed as change in hyphae properties at 16 ug/ml incubated for 18 hrs in presence of mouse RAW264.7 macrophages by PI/Acridine orange double staining based confocal laser scanning microscopic analysis; format: functional; conditions: dose 16.0 µg/ml
Vero = assay: Cytotoxicity against African green monkey Vero cells at > 64 ug/ml measured after 24 hrs by XTT assay; format: toxicity, cell-based; conditions: chlorocebus sabaeus, dose > 64 µg/ml
[25] = Toxicity in Galleria mellonella larvae assessed as change in morphology at 16 ug/ml measured after 5 days by Hematoxylin and eosin staining; conditions: 120 h, dose 16 µg/ml, time 5 day
Candida albicans [26] = assay: In vivo antifungal activity against Candida albicans SC5314 infected in Galleria mellonella larvae assessed as survival of larvae by measuring health score index at 16 ug/ml administered 1 hr prior to infection measured within 5 days by Hematoxylin and eosin staining; format: functional, organism-based; conditions: dose 16.0 µg/ml, time 5.0 day
Candida albicans [27] = assay: Inhibition of ergosterol biosynthesis in Candida albicans SC5314 assessed as reduction in ergosterol level incubated for 18 hrs by spectrophotometric analysis; format: functional; conditions: dose 0.06-32 µg/ml, DDE = dose-dependent effect
Candida tropicalis = assay: Inhibition of ergosterol biosynthesis in Candida tropicalis C129 assessed as reduction in ergosterol level incubated for 18 hrs by spectrophotometric analysis; format: functional; conditions: dose 0.06-32 µg/ml, DDE = dose-dependent effect
Candida albicans [28] = assay: Antifungal activity against Candida albicans assessed as inhibition of fungal growth measured after 48 hrs in presence of exogenous ergosterol by M27-A3 based broth microdilution; format: functional
Candida albicans [29] = assay: Effect on HSP90 expression in Candida albicans cnb1delta/cnb1delta mutant assessed as decrease in relative expression of HSP90 gene level at 2 ug/ml incubated for 18 hrs by RT-PCR analysis; format: functional; conditions: dose 2.0 µg/ml
Candida albicans [30] = assay: Effect on HSP90 expression in Candida albicans BWP17 assessed as fold increase in relative expression of HSP90 gene level at 2 ug/ml incubated for 18 hrs in presence of calcium chloride by RT-PCR analysis; format: functional; conditions: dose 2.0 µg/ml
Candida albicans [31] = assay: Downregulation of HSP90 gene expression in Candida albicans cnb1delta/cnb1delta mutant at 2 ug/ml incubated for 6 hrs in presence of calcium chloride by RT-PCR analysis; format: functional; conditions: dose 2.0 µg/ml

SMILES: O=C1CN=C(c2ccccc2Br)c2cc(F)ccc2N1CCCn1nnc(-c2ccccc2Cl)n1
- Activity (Candida albicans [1]): Active
- inhibition at 4 µg/mL (Candida albicans [2]): 99.3%
- inhibition at 16 µg/mL (Candida albicans [3]): 100%
- inhibition at 8 µg/mL (Candida albicans [4]): 99.1%
- inhibition at 8 µg/mL (Candida albicans [5]): 99.1%
- inhibition at 4 µg/mL (Candida albicans [6]): 99.3%
- inhibition at 2 µg/mL (Candida albicans [7]): 100%
- inhibition at 2 µg/mL (Candida albicans [8]): 100%
- inhibition at 1 µg/mL (Candida albicans [9]): 99.2%
- inhibition at 0.5 µg/mL (Candida albicans [10]): 99.3%
- inhibition at 0.25 µg/mL (Candida albicans [11]): 100%
- inhibition at 0.125 µg/mL (Candida albicans [12]): 99.3%
- inhibition at 0.125 µg/mL (Candida albicans [13]): 99.3%
- inhibition at 0.0625 µg/mL (Candida albicans [14]): 99.2%
- inhibition at 0.03125 µg/mL (Candida albicans [15]): 100%
- Activity (Candida albicans [16]): 81.37%
- Activity (Candida albicans [17]): Active
- Activity (Candida albicans [18]): 24.4%
- Activity (Candida albicans [19]): 3.7%
- Activity (Candida albicans [20]): 4.9%
- Activity (Candida albicans [21]): Active
- Activity (Candida albicans [22]): Active
- Activity (Candida albicans [23]): Active
- Activity (Candida albicans [24]): Active
- Activity (Vero): Toxic
- Activity [25]: Non-Toxic
- Activity (Candida albicans [26]): Active
- Activity (Candida albicans [27]): Dde
- Activity (Candida tropicalis): Dde
- MIC (Candida albicans [28]): 2.56 µg/mL
- Activity (Candida albicans [29]): Active
- fold change (FC) (Candida albicans [30]): 4
- Activity (Candida albicans [31]): Active
